The values below are quoted from earlier work in patent US20200281206A1, “SEXUAL ATTRACTION PHEROMONE OF TRIBOLIUM CASTANEUM AND INSECT CONTROL DEVICE” (YPF TECNOLOGÍA S.A., priority 2019, published 2020).

The data set concerns Tribolium castaneum. The following applies: prior-art finding.

Regarding `CCC(C)CCCC(C)CCC=O` (stereo not shown) [4,8-dimethyldecanal], the “sex of insects attracted” value was “attracts both male and female insects”.
